Patent US20250051264A1, “CANNABIDIOL DERIVATIVE, PREPARATION METHOD THEREFOR AND APPLICATION THEREOF” (DEYI PHARMACEUTICAL LTD., priority 2021, published 2025)

What was measured:
Assay type in all cases: in vivo, C57/BL6 mice
[1] = test system: tyrosine hydroxylase (TH) cells in substantia nigra (SubN); experiment: Tyrosine hydroxylase (TH) cells in substantia nigra (SubN) by immunohistochemistry in the MPTP mouse model of Parkinson's disease; details: for positive rate of TH cells in substantia nigra as compared to the model group: after treatment; for TH cell positive rate: substantia nigra, after 14 days intragastric treatment (compound 3 100 mg/kg; amantadine 40 mg/kg), blank 34.27 ± 5.08, model 12.74 ± 1.71
Method: (§1) (2) MPTP (25 mg/kg) was intraperitoneally injected once a day for 7 consecutive days. The blank group was left untreated.
(§2) (3) After modeling, administration was started. […] The intragastric administration was performed once a day for 14 consecutive days.
The tissue should be cut using sharp knives and scissors. When cutting a tissue mass, the tissue was cut by pulling backwards from the root of the knife. […] The prepared tissue mass was fixed in 10% formalin for 48 h.
The fixed tissue was washed with running water to remove residual fixing liquid and impurities. The tissue mass was dehydrated in stages with different concentrations of ethanol (50%, 70%, 85%, 95%, up to pure alcohol (absolute ethanol)), each stage for 2 h. Dehydration must be performed in a capped flask to prevent high concentrations of ethanol from absorbing moisture in the air, resulting in reduced concentrations and incomplete dehydration. The material to be preserved can remain in 70% ethanol when being dehydrated with it. For long-term preservation, an equivalent amount of glycerol can be added.
The tissue mass was placed into a mixed solution of pure ethanol and xylene in an equivalent volume and left to stand for 2 h, subsequently placed into pure xylene and left to stand for two hours, and placed into pure xylene and left to stand for another two hours. After transparentizing, the effect of the previous dehydration of the material can be shown. If the dehydration is complete, the tissue is in a transparent state, and if there is a white cloud-shaped substance in the tissue, it means that the dehydration is incomplete and must be reworked, but the effect of rework is often not good. When xylene is used for transparentizing, it should be prevented from volatilizing and absorbing moisture in the air, and it should be kept in an anhydrous state.
The paraffin immersion must be performed in a thermostat. The tissue mass material was first immersed in a mixed solution of molten paraffin and xylene in equal volume for 1-2 h and subsequently immersed in 2 parts of molten paraffin solutions for 3 h each.
Embedding is the encapsulation of the paraffin-impregnated tissue mass with paraffin. Specifically, a paper box was first prepared, molten paraffin was added to the box, a tissue mass was quickly clamped by using a pair of pre-heated tweezers, and placed flat at the bottom of the paper box with a cut surface facing downwards. Subsequently, the paper box was slightly lifted up and placed flat in cold water, immediately pressed into the water after the paraffin on the surface was solidified for quickly cooling and solidifying the paraffin, and taken out after 30 min.
The paraffin block was placed in a refrigerator at −20° C. for at least 30 min before slicing to increase hardness. […]

[2] = test system: model of Parkinson's disease; experiment: Behavioral balance beam score in the MPTP mouse model of Parkinson's disease; details: for balance beam score after treatment: after 14 days intragastric treatment, model group 4-5 points; for Behavioral balance beam score, After treatment: after intragastric administration once a day for 14 days (compound 3 100 mg/kg; amantadine 40 mg/kg), model group 4.50 ± 0.53; for Behavioral balance beam score, After treatment / Behavioral balance beam score, After modeling: scale 0-5; for balance beam score as compared to the model group: after treatment, P≤0.05; for Behavioral balance beam score, After modeling: baseline 7 days after MPTP 25 mg/kg i.p. once daily, before treatment, mean ± SD, 8 mice per group
Method: C57/BL6 mice, SPF grade, weighing 18-20 g, aged 6-8 weeks, male, purchased from Shanghai Slac Laboratory Animal Co., Ltd. Feeding environment: the temperature was kept at 22±1° C., and the humidity was kept at 65%-70%, in a 12/12 hour light/dark illumination cycle, with free access to water.
(1) 32 SPF-grade C57 mice aged 6-8 weeks were purchased and acclimatized for one week, and subsequently the modeling was started.
as §1, §2
(4) Behavioral test was first performed by balance beam test scoring.
A beam of 80 cm long and 2.5 cm wide was horizontally fixed at a height of 10 cm from the table top, and subsequently, the animals were allowed to walk on the beam.
The scoring scale was as follows: being able to jump on the balance beam and to walk freely without falling down: 0 points; being able to jump on the balance beam, but having a probability of tumbling down of less than 50% when walking on the balance beam: 1 point; being able to jump on the balance beam, but having a probability of tumbling down of greater than 50% when walking on the balance beam: 2 points; being able to jump on the balancing beam with the help of the normal side of the body, but failing to get help from the hind limb on the paralyzed side to move forward: 3 points; being unable to walk on the balance beam, but being able to sit on the beam: 4 points; falling off quickly when being placed on the beam: 5 points.

dopamine in striatum = experiment: Content of dopamine in brain striatum by the kit method (ELISA) in the MPTP mouse model of Parkinson's disease
Method: as §1, §2
After the mice were sacrificed quickly, the brains of the mice were taken and the cerebral palliums (CPs) of the mice were isolated. After exposing the brain striatum of the mice, the striatum was weighed and homogenized after adding PBS according to a proportion. The supernatant was isolated and detected for the content of dopamine in the brain striatum.
(1) Standard curve plotting: a microplate was taken, and reagents were added according to the table below.
(2) According to the number of samples, a proper amount of BCA working solution was prepared by uniformly mixing BCA reagent A and reagent B according to a volume ratio of 50:1.
(3) 160 μL of BCA working solution was added to each well.
(4) The microplate was shaken on a shaker for 30 s, left to stand at 37° C. for 30 min, and subsequently measured for absorbance at 562 nm. A standard curve was plotted with the absorbance value as an abscissa and the protein concentration (μg/μL) as an ordinate.
(5) 2 μL of test protein and 18 μL of PBS (10-fold dilution) were added to the microplate, 160 μL of BCA working solution was added, and the microplate was shaken on a shaker for 30 s, left to stand at 37° C. for 30 min, and subsequently measured for the absorbance at 562 nm.
(7) The experimental procedures and methods for the determination of dopamine in mice were referred to the kit instructions.

NC12CC3CC(CC(C3)C1)C2 [Positive drug, amantadine, reference compound]
positive rate of TH cells in substantia nigra as compared to the model group [1]: significant increase
TH cell positive rate [1]: 20.82 ± 5.77 %
balance beam score after treatment [2]: 2-3 points
Behavioral balance beam score, After treatment [2]: 2.13 ± 0.83
balance beam score as compared to the model group [2]: significant descending trend
Behavioral balance beam score, After modeling [2]: 4.75 ± 0.46

C=C(C)[C@@H]1CCC(C)=C[C@H]1c1c(OC(=O)[C@@H](N)CCCCN)cc(CCCCC)cc1OC(=O)[C@@H](N)CCCCN [compound 3]
DA content of dopamine in striatum after treatment (dopamine in striatum; after 14 days intragastric treatment (compound 3 100 mg/kg; amantadine 40 mg/kg), blank 0.71 ± 0.16, model 0.30 ± 0.07): 0.45 ± 0.10 ng/mg
dopamine content as compared to the model group (dopamine in striatum; after treatment, P≤0.01): increase
content of dopamine compared with the blank group (dopamine in striatum; after treatment, P≤0.05): significant decrease
positive rate of TH cells in substantia nigra as compared to the model group [1]: increase
TH cell positive rate [1]: 14.59 ± 2.60%
balance beam score after treatment [2]: 3-4 points
Behavioral balance beam score, After treatment [2]: 3.50 ± 1.07
balance beam score as compared to the model group [2]: significant descending trend
Behavioral balance beam score, After modeling [2]: 4.38 ± 0.52
